≈ marks a conversion by molar mass, not a printed value. Calls of active or inactive are those of the source. The rule behind the calls is not given here.
How the values were obtained:
[1] = Half-life in NOD SCID mouse at 1 mg/kg, iv; type: ADME, organism-based; conditions: in vivo
[2] = test system: A498; test: Downregulation of CXCL8 mRNA expression in human A498 cells at 1 to 2.5 uM incubated for 48 hrs by qPCR analysis; type: functional, cell-based; conditions: dose 1-2.5 µM
[3] = Stability of compound in DMSO measured after 24 hrs; type: physicochemical
[4] = Genotoxicity in Salmonella typhimurium TA98 upto 100 uM in absence of S9 fraction by Ames test; type: toxicity; conditions: salmonella enterica subsp. enterica serovar typhimurium, s9, 100 µM
[5] = molecular target: Phosphorylase b kinase gamma catalytic chain, liver/testis isoform (Homo sapiens) (UniProt P15735); test: Inhibition of PHKG2 (unknown origin) at 10 uM in presence of ATP at Km concentration
Chain of Phosphorylase b kinase gamma catalytic chain, liver/testis isoform (Homo sapiens) (P15735 whole entry, canonical isoform): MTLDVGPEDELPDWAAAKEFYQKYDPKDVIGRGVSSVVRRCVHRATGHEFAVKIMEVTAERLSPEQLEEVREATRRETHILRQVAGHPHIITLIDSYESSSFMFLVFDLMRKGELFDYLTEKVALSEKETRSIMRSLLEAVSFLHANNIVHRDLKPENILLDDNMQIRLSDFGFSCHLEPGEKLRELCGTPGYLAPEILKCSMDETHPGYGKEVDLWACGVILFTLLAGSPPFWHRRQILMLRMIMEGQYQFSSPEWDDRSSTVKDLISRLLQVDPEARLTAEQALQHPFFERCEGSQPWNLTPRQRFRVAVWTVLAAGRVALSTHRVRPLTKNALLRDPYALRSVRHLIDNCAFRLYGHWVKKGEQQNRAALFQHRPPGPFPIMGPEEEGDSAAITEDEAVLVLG

[6] = Cmax in NOD SCID mouse at 100 mg/kg, po; type: ADME, organism-based; conditions: in vivo
[7] = Oral bioavailability in NOD SCID mouse at 50 mg/kg; type: ADME, organism-based; conditions: in vivo
[8] = test system: A498; test: Antimetastatic activity against human A498 cells labeled with vybrant DiD cell-labeling solution xenografted in zebrafish embryo assessed as fold reduction in metastasis area at 1 uM pre-infected with cells for 24 hrs followed by compound addition and measured after 48 hrs by fluorescence microscopic imaging analysis; type: functional
[9] = molecular target: Glycogen synthase kinase-3 beta (Homo sapiens) (UniProt P49841); test: Inhibition of GSK3B (unknown origin) at 10 uM in presence of ATP at Km concentration
Chain of Glycogen synthase kinase-3 beta (Homo sapiens) (P49841 whole entry, looked up): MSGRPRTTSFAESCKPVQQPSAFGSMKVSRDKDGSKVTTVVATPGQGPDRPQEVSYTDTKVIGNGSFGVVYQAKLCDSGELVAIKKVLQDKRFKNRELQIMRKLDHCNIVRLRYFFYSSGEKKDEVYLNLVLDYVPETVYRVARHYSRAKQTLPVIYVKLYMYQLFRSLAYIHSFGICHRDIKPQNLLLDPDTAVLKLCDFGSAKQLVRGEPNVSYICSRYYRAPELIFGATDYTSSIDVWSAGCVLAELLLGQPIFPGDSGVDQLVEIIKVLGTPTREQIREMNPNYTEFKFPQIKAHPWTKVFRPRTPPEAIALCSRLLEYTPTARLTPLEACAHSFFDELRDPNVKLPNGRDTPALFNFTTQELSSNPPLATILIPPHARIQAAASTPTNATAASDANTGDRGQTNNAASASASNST

[10] = molecular target: Serine/threonine-protein kinase D2 (Homo sapiens) (UniProt Q9BZL6); test: Inhibition of PRKD2 (unknown origin) at 10 uM in presence of ATP at Km concentration
Chain of Serine/threonine-protein kinase D2 (Homo sapiens) (Q9BZL6 whole entry): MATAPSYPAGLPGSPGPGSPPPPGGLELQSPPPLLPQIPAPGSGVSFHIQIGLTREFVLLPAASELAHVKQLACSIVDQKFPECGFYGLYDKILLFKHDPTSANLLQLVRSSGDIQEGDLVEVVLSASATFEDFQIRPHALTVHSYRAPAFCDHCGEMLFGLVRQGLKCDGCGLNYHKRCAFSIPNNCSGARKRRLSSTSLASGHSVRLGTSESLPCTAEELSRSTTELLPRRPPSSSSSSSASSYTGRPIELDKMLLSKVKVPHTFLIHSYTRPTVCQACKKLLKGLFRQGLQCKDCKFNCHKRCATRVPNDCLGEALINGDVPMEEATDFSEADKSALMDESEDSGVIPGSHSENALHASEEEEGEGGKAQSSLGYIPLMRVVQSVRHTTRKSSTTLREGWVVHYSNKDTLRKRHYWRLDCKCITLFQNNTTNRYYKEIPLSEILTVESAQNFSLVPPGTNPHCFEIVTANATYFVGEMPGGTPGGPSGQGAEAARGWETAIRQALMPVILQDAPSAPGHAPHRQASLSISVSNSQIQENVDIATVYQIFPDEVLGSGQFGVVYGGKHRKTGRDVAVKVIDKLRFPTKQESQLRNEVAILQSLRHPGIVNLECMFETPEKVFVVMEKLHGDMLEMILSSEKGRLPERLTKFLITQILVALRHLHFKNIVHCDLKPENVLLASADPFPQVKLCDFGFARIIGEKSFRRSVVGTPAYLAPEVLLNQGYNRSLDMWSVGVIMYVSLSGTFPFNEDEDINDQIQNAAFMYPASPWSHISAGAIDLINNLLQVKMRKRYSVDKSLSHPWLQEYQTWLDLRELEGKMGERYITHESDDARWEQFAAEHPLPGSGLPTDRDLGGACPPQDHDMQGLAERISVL

[11] = molecular target: Myosin-IIIb (Homo sapiens) (UniProt Q8WXR4); test: Inhibition of MYO3B (unknown origin) at 10 uM in presence of ATP at Km concentration
[12] = molecular target: Casein kinase I isoform gamma-3 (Homo sapiens) (UniProt Q9Y6M4); test: Inhibition of CSNK1G3 (unknown origin) at 10 uM in presence of ATP at Km concentration
Chain of Casein kinase I isoform gamma-3 (Homo sapiens) (Q9Y6M4 whole entry, looked up, canonical isoform): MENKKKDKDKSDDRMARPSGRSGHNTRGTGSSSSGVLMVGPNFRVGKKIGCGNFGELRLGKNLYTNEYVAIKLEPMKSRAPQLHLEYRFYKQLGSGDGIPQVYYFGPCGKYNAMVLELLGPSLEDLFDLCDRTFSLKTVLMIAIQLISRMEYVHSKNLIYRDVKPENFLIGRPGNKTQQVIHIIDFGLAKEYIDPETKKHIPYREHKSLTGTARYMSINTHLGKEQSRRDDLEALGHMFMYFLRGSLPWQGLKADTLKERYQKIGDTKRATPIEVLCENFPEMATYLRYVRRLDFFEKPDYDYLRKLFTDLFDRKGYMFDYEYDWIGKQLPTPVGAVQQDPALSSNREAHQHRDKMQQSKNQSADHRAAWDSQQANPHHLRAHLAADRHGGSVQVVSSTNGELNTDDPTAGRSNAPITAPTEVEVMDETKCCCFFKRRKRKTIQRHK

[13] = test system: A498; test: Inhibition of CXCL5 secretion in human A498 cells at 1 to 2.5 uM incubated for 48 hrs by ELISA; type: functional, cell-based; conditions: dose 1-2.5 µM
[14] = test system: 786-0; test: Antitumor activity against human 786-0 cells xenografted in athymic nude mouse assessed as tumor growth inhibition at 100 mg/kg, po administered twice daily via gavage for 28 days relative to control; type: functional; conditions: 786-0, 672 h, time 28 day, read-out: TGI
[15] = molecular target: Mitogen-activated protein kinase kinase kinase kinase 5 (Homo sapiens) (UniProt Q9Y4K4); test: Inhibition of MAP4K5 (unknown origin) at 10 uM in presence of ATP at Km concentration
Chain of Mitogen-activated protein kinase kinase kinase kinase 5 (Homo sapiens) (Q9Y4K4 whole entry, looked up): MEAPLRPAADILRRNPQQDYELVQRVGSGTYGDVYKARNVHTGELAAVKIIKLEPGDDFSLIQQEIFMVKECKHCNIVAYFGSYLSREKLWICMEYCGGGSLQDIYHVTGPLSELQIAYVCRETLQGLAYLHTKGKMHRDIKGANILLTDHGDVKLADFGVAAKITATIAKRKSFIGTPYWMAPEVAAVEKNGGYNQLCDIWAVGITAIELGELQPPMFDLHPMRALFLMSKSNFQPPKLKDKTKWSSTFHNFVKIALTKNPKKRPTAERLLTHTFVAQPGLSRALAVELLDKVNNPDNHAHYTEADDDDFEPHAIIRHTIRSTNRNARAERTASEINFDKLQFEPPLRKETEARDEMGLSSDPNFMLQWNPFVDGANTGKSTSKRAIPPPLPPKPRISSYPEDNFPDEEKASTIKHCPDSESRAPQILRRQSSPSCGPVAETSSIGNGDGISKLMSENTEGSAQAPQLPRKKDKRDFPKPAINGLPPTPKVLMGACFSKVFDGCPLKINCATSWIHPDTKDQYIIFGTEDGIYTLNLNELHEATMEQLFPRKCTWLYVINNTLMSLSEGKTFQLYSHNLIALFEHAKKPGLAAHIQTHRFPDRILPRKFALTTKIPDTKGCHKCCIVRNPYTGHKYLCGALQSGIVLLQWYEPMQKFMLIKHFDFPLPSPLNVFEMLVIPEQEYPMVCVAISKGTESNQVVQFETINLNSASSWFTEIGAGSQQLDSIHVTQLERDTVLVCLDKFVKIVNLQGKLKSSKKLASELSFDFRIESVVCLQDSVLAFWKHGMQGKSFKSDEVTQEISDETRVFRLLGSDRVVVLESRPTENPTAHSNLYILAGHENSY

[16] = molecular target: Mitogen-activated protein kinase kinase kinase 11 (Homo sapiens) (UniProt Q16584); test: Inhibition of MAP3K11 (unknown origin) at 10 uM in presence of ATP at Km concentration
[17] = molecular target: Interleukin-8 receptors, CXCR1/CXCR2 (Homo sapiens) (UniProt P25025+P25024); test: Inhibition of CXCR1/2 pathway in human A498 cells assessed as reduction in AKT phosphorylation at 2.5 uM incubated for 24 to 48 hrs by immunoblot analysis; type: functional, cell-based; conditions: time 24-48 hrs
[18] = test system: 786-0; test: Antiproliferative activity against human 786-0 cells incubated for 48 hrs by XTT assay; type: functional, cell-based; conditions: 786-0, 48 h
[19] = Stability in mouse microsomes assessed as compound remaining measured after 1 hrs; type: ADME, Microsome; conditions: read-out: Stability
[20] = test system: A498; test: Antimetastatic activity against human A498 cells labeled with vybrant DiD cell-labeling solution xenografted in zebrafish embryo assessed as inhibition of neovascularization by measuring decrease in fluorescence intensity of GFP labeled blood vessel at 1 uM incubated for 72 hrs by fluorescence microscopic imaging analysis; type: functional, cell-based
[21] = Genotoxicity in Salmonella typhimurium TA100 upto 100 uM in absence of S9 fraction by Ames test; type: toxicity; conditions: salmonella enterica subsp. enterica serovar typhimurium, s9, 100 µM
[22] = Tmax in NOD SCID mouse at 50 mg/kg, po; type: ADME, organism-based; conditions: in vivo
[23] = test system: CAL-33; test: Antiproliferative activity against human CAL-33 cells incubated for 48 hrs by XTT assay; type: functional, cell-based; conditions: CAL-33, 48 h
[24] = test system: A498; test: Antiproliferative activity against human A498 cells incubated for 48 hrs by XTT assay; type: functional, cell-based; conditions: A498, 48 h
[25] = molecular target: Angiopoietin-1 receptor (Homo sapiens) (UniProt Q02763); test: Inhibition of TEK (unknown origin) at 10 uM in presence of ATP at Km concentration
[26] = Stability in human microsomes assessed as intrinsic clearance; type: ADME, Microsome
[27] = Genotoxicity in Salmonella typhimurium TA1535 upto 100 uM in presence of S9 fraction by Ames test; type: toxicity, subcellular; conditions: salmonella enterica subsp. enterica serovar typhimurium, s9, 100 µM
[28] = Genotoxicity in Salmonella typhimurium TA1535 upto 100 uM in absence of S9 fraction by Ames test; type: toxicity; conditions: salmonella enterica subsp. enterica serovar typhimurium, s9, 100 µM
[29] = test system: A498; test: Antimetastatic activity against human A498 cells labeled with vybrant DiD cell-labeling solution xenografted in zebrafish embryo at 1 uM incubated for 72 hrs by fluorescence microscopic imaging analysis; type: functional, cell-based
[30] = molecular target: Hepatocyte growth factor receptor (Homo sapiens) (UniProt P08581); test: Inhibition of MET (unknown origin) at 10 uM in presence of ATP at Km concentration
Chain of Hepatocyte growth factor receptor (Homo sapiens) (P08581 whole entry): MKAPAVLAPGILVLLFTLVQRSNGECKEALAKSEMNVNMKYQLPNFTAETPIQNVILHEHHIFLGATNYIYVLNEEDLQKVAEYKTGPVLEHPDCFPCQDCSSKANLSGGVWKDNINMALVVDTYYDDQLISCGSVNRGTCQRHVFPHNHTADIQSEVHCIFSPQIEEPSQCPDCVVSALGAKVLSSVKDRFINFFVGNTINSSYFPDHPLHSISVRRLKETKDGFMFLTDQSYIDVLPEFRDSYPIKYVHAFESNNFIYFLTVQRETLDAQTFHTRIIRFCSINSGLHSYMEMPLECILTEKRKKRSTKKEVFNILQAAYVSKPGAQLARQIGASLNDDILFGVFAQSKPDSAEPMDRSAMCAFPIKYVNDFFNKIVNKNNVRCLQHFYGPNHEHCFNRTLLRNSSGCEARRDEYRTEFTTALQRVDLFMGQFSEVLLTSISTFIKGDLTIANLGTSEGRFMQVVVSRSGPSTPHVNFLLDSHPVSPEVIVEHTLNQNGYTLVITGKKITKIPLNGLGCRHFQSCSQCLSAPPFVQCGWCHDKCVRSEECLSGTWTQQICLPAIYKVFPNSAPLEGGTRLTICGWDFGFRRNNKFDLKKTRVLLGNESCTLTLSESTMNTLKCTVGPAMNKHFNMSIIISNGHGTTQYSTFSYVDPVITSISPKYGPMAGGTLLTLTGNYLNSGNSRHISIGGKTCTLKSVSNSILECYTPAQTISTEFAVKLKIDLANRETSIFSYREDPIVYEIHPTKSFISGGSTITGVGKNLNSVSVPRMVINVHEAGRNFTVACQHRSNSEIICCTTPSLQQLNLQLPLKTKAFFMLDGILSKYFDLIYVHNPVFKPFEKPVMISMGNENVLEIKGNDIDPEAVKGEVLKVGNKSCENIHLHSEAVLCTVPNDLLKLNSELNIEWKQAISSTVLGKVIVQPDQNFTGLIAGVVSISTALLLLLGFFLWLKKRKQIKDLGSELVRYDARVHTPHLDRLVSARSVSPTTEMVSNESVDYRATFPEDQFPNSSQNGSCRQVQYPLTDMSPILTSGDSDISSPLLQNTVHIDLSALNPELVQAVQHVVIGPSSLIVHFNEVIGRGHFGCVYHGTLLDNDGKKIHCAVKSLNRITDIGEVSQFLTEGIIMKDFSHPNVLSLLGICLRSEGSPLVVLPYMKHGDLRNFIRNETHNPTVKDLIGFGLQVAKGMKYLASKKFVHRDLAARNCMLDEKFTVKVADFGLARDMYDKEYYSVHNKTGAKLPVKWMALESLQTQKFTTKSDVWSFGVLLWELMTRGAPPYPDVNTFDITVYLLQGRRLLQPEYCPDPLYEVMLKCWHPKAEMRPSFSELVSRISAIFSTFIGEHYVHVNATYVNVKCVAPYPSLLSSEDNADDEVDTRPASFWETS

[31] = molecular target: TGF-beta receptor type-2 (Homo sapiens) (UniProt P37173); test: Inhibition of TGFBR2 (unknown origin) at 10 uM in presence of ATP at Km concentration
[32] = Toxicity in athymic nude mouse xenografted with human 786-0 cells assessed as discernible signs at 100 mg/kg, po administered twice daily via gavage for 28 days; type: organism-based; conditions: in vivo, 672 h, time 28 day
[33] = Aqueous solubility of compound in SIF at pH 7.5; type: ADME
[34] = Cmax in NOD SCID mouse at 50 mg/kg, po; type: ADME, organism-based; conditions: in vivo
[35] = Aqueous solubility of compound in PBS; type: physicochemical
[36] = molecular target: Ribosomal protein S6 kinase beta-2 (Homo sapiens) (UniProt Q9UBS0); test: Inhibition of RPS6KB2 (unknown origin) at 10 uM in presence of ATP at Km concentration
[37] = test system: A498; test: Inhibition of CXCL1 secretion in human A498 cells at 1 to 2.5 uM incubated for 48 hrs by ELISA; type: functional, cell-based; conditions: dose 1-2.5 µM
[38] = Stability of compound at pH 12 measured after 24 hrs; type: physicochemical; conditions: buffer, pH 12, 24 h
[39] = test system: A498; test: Downregulation of CXCL5 mRNA expression in human A498 cells at 1 to 2.5 uM incubated for 48 hrs by qPCR analysis; type: functional, cell-based; conditions: dose 1-2.5 µM
[40] = AUC (0 to infinity) in NOD SCID mouse at 200 mg/kg, po; type: ADME, organism-based; conditions: in vivo
[41] = molecular target: Ephrin type-B receptor 4 (Homo sapiens) (UniProt P54760); test: Inhibition of EPHB4 (unknown origin) at 10 uM in presence of ATP at Km concentration
[42] = molecular target: Serine/threonine-protein kinase PLK1 (Homo sapiens) (UniProt P53350); test: Inhibition of PLK1 (unknown origin) at 10 uM in presence of ATP at Km concentration
Chain of Serine/threonine-protein kinase PLK1 (Homo sapiens) (P53350 whole entry): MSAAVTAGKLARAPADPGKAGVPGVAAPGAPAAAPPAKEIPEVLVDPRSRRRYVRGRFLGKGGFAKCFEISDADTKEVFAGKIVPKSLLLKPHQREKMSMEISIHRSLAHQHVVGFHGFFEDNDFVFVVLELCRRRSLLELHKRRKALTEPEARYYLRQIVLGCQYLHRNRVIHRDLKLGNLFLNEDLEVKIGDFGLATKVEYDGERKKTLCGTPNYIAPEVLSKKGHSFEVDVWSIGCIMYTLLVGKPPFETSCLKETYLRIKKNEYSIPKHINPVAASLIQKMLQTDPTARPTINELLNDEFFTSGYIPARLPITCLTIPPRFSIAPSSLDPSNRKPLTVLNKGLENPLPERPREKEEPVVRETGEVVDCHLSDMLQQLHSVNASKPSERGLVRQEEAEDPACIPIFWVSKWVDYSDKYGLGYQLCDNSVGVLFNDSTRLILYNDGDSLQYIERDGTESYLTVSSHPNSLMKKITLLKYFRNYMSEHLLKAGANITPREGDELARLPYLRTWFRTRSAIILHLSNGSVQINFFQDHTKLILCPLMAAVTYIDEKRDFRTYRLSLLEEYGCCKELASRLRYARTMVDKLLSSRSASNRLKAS

In the case of `O=C(Nc1cc(Cl)cc(Cl)c1)Nc1nc2ccc([N+](=O)[O-])cc2s1`, the half-life [1] is reported as 24 min, the Activity [2] is reported as “Active” and the Stability [3] is reported as “Stable”. For the same compound, the Activity [4] was “Non-Toxic”, the inhibition [5] was “inactive” and the Cmax [6] was 2800 nM. The bioavailability [7] was 39%, the “fold change (FC)” value [8] was roughly 4 and the inhibition [9] was “inactive”. The inhibition [10] was “inactive”, the inhibition [11] was “inactive” and the inhibition [12] was “inactive”. The inhibition [13] was “Active”, the inhibition in vivo at 100 mg/kg [14] was 87% and the inhibition [15] was “inactive”. For the same compound, the inhibition [16] was “inactive”, the inhibition [17] was “Active” and the IC50 [18] was 2500 nM. For the same compound, the remaining at 1 h [19] was 76%, the Activity [20] was “Active” and the Activity [21] was “Non-Toxic”. The Tmax [22] was 90 min, the IC50 [23] was 4000 nM and the IC50 [24] was 2000 nM. For the same compound, the inhibition [25] was “inactive”, the microsomal CLint [26] was less than 116 µL/min/mg and the Activity [27] was “Non-Toxic”. For the same compound, the Activity [28] was “Non-Toxic”, the Activity [29] was “Active” and the inhibition [30] was “inactive”. The inhibition [31] was “inactive”, the Activity [32] was “Non-Toxic” and the solubility [33] was 3 µM (≈ 1.15 µg/mL). The Cmax [34] was 2000 nM, the solubility [35] was 1.9 µM (≈ 0.728 µg/mL) and the inhibition [36] was “inactive”. For the same compound, the inhibition [37] was “Active”, the Stability [38] was “Stable” and the Activity [39] was “Active”. For the same compound, the AUC(0-inf) [40] was 19300 ng·h/mL, the inhibition [41] was “inactive” and the inhibition [42] was “inactive”.

Reference: ChEMBL document CHEMBL5532720, “A Potent Solution for Tumor Growth and Angiogenesis Suppression via an ELR+CXCL-CXCR1/2 Pathway Inhibitor” (ACS Med Chem Lett, 2024)
